Reference: paper PMC5624969, “Coupled reactions by coupled enzymes: alcohol to lactone cascade with alcohol dehydrogenase–cyclohexanone monooxygenase fusions” (Applied Microbiology and Biotechnology, 2017)

Legend:
TmCHMO [1] = target: T1, TmCHMO (Thermocrispum municipale, UniProt A0A1L1QK40); assay: ThermoFAD, release of FAD on unfolding; type: binding; conditions: 10 uM enzyme, +0.5 °C/min
T1 construct: recombinant from E. coli, gene from pBAD-His-Tag-SUMO-TmCHMO
T1 sequence (A0A1L1QK40 1-541): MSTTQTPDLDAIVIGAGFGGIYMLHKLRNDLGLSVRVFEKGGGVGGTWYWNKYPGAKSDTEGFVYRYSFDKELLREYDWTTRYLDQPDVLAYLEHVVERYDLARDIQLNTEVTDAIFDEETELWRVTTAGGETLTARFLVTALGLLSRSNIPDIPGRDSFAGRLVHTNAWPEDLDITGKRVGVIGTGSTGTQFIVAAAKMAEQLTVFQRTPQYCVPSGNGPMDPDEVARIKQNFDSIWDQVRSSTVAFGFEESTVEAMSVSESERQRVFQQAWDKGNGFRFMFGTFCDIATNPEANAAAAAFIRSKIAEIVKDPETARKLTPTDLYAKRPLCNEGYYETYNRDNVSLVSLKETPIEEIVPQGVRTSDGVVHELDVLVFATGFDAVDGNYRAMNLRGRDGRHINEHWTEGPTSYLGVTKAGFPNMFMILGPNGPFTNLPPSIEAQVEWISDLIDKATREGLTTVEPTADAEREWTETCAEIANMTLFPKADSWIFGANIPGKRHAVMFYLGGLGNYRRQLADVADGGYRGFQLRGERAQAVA

TmCHMO [2] = target: T1, TmCHMO; assay: inhibition of thioanisole oxidation, NADPH depletion at […] nm; type: biochemical; conditions: read-out: K I (estimated)
TmCHMO [3] = target: T1, TmCHMO; assay: as above; type: biochemical; conditions: read-out: 50% reduction of activity

With `Cc1cc2nc3c(=O)[nH]c(=O)nc-3n(C[C@H](O)[C@H](O)[C@H](O)COP(=O)(O)OP(=O)(O)OC[C@H]3O[C@@H](n4cnc5c(N)ncnc54)[C@H](O)[C@@H]3O)c2cc1C` [FAD] the “ThermoFAD, release of FAD on unfolding” value (TmCHMO [1]) was “the release of the FAD from TmCHMO upon unfolding could be detected”.

With `OC1CCCCC1` [cyclohexanol] the Ki (TmCHMO [2]) was under 2 mM.

`O=C1CCCCCO1` [ε-caprolactone] was tested, and the IC50 (TmCHMO [3]) was 66 mM.
